Results taken from US20250129069A1, “TRIAZOLO WRN INHIBITORS” (Nimbus Wadjet, Inc., priority 2023, published 2025).

Legend:
[1] = molecular target: human Werner helicase (WRN, amino acids 517-1235 with L1074F point mutation) (Homo sapiens (Human), UniProt Q14191, L1074F); assay: WRN (BV08) ADP-Glo assay; assay type: biochemical; conditions: human WRN (aa 517-1235, L1074F), read-out: ADP-Glo_hWRN_IC50
Source text: Bovine skin gelatin (BSG), dimethyl sulfoxide (DMSO), Pluronic F-127 and tris(2-carboxyethyl)phosphine hydrochloride solution (TCEP) were purchased from Sigma-Aldrich (St. Louis, MO) at the highest level of purity possible. Bicine buffer solution was purchased from Alfa Aesar (Tewksbury, MA) and compound NSC-617145 was purchased from Tocris (Minneapolis, MN). DNA duplex was synthesized at BGI (Shenzhen, China) and was composed of strand 1 with the sequence 5′-[…]-3′ (SEQ ID NO.: 1) and strand 2 with the sequence 5′-[…]-3′ (SEQ ID NO.: 2). DNA strands were annealed by heating to 95° C. for 5 minutes followed by slow cooling to room temperature. Compounds in 100% DMSO (0.1 μl) were spotted into a 384-well white polystyrene Optiplate-384 (Perkin Elmer; Waltham, MA) assay plate using a LabCyte Echo 550 (Agilent; Santa Clara, CA). DMSO (0.1 μl) was added to columns 12, rows A-H and column 24, rows I-P for the maximum signal control. Compound NSC-617145 (0.1 μl) was added to columns 12, rows I-P and 24, rows A-H for the minimum signal control (100% inhibition). Compounds/DMSO were preincubated for 15 minutes at 25° C. with 5 μl 2×WRN (BV08), prepared as described below, in assay buffer containing 20 mM Bicine (pH=7.5), 1 mM MgCl2, 10 mM KCl, 0.1% Pluronic F-127, 0.005% BSG, 1 mM TCEP. The reaction was initiated by the addition of 5 μl 2× substrate mixture in assay buffer and incubated for 60 minutes at 25° C. The final concentrations of the assay components were 0.15 nM WRN, 5 μM ATP, and 0.1 nM DNA duplex. The final DMSO concentration was 1% and the reference compound concentration (NSC-617145) used for the minimal signal control was 20 μM. The reaction was stopped by the addition of the ADP-Glo Kit components (Promega; Madison, WI) as directed and the relative luminescence units (RLU) were read on an Envision 2104 (Perkin Elmer; Waltham, MA).
% inhibition calculation:
% INH=(RLU MAX−RLU sample)/(RLU MAX−RLU MIN))×100
Where RLU=relative luminescence units, sample=signal in sample well, and MIN and MAX are the respective minimum and maximum signal controls. Four-parameter IC50 fit equation:
Y=Bottom+(Top−Bottom)/(1+(IC50/X)^Hill Slope)
Where top and bottom are normally allowed to float but may be fixed at 100 or 0 respectively in a 3-parameter fit. Y is the % inhibition and X is the compound concentration.
Molecular Biology and virus production. The DNA encoding human Werner helicase (Uniprot Q14191, amino acids 517-1235 with L1074F point mutation) was generated with codon-optimization for E. coli expression and subcloned into the pFastBac vector with a TEV cleavable 8×His tag (WRN—BV08). The baculovirus from the expression plasmid WRN—BV08 was generated from transfection and amplification following the manufacturer's instructions.
Sf9 cells grown in SF900II media were infected with 1:200 WRN—BV08 P2 virus and incubated for protein expression for 72 h at 27° C. The WRN protein was purified using the following protocol. The cell pellets were thawed and resuspended in buffer A (50 mM Tris, pH 7.5, 500 mM NaCl, 1 mM TCEP, 10% Glycerol) supplemented with 0.5% CHAPS, 1 mM PMSF, […] Leupeptin, 1 μg/ml Pepstatin, and the Pierce Universal Nuclease and cocktail tablet. Cleared lysates were loaded onto a Ni Sepharose™ excel column and washed with buffer A and bound protein was eluted with buffer A supplemented with 300 mM imidazole. The eluted protein was dialyzed against buffer A and digested by His-tagged TEV (1:5 ratio) overnight at 4° C. ZnCl2 was added into the sample at final 15 μM before loading onto a second Ni Sepharose™ excel column. Untagged WRN protein was eluted from the column with buffer A supplemented with 20 mM imidazole, dialyzed overnight into buffer B (50 mM Tris, pH 7.5, 1 mM TCEP, 10% Glycerol) supplemented with 150 mM NaCl and loaded onto a Heparin column. Proteins were eluted with a step gradient of buffer B supplemented with 150 mM, 200 mM, 300 mM and 500 mM NaCl. […]

[2] = system: p21 induction in HCT 116 cells; assay: p21 induction in cells (In-Cell Western, p21/GAPDH ratio); assay type: cell-based; conditions: Homo sapiens, 24 h compound incubation, read-out: p21_EC50
Description: The colon carcinoma cell line HCT 116 was obtained from ATCC and cultured in growth medium consisting of Mccoy's 5A Medium (Gibco 16600108) supplemented with 10% FBS (Transgene FS201-02) and 100 units/mL penicillin-streptomycin (Gibco 15140122) and maintained at 37° C. under 5% CO2. On the day of seeding, 2,000 cells in 30 μL of culture media were plated per well to Poly-D-Lysine 384 Well Black Clear Plates (Biocoat 356663) and incubated overnight at 37° C. under 5% CO2. The following day, compounds were serially diluted in DMSO for a total of 11 test concentrations. The typical starting concentration of compounds was 10 μM with 2-fold dilutions. Next, 150 nL of diluted compound was added in duplicate to the assay plate, using an Echo 655 (Labcyte). The plate was centrifuged at 500 RPM for 1 min and then incubated at 37° C. under 5% CO2 for 24 h. After 24 h, medium was removed, and cells were fixed by adding 40 μL of 4% paraformaldehyde solution to each well and incubated for 20 min at room temperature. The plate was then washed 4 times with 100 μL per well of wash buffer (PBS with 0.1% Tween-20) using a microplate washer. Next, 30 μL of ice-cold methanol was added to each well and the plate was incubated at −20° C. for 10 min. The plate was washed 4 times with 100 μL per well of wash buffer by a microplate washer, then 30 μL per well of blocking buffer ((Intercept PBS blocking buffer (LI-COR 927-70001) with 0.05% Tween-20)) was added and the plate was incubated at room temperature with shaking for 2 h. Next, to each test well, 20 μL of primary antibody solution (p21 Wafl/CIP (12D1) RabbitmAb (Cell Signaling Technologies 2947) diluted 1:1000 and GAPDH (D4C6R) Mouse mAb (Cell Signaling Technologies 97166) diluted 1:2000 in blocking buffer) was added and the plate was placed at 4° C., overnight. The following day, the plate was washed 5 times with 100 μL per well of wash buffer using a microplate washer for 5 min. 20 μL per well of secondary antibody (IRDye 680CW Goat anti-Mouse IgG (H+L) (LI-COR 926-68070) diluted 1:2000 in Blocking Buffer and IRDye 800CW Goat anti-Rabbit IgG (H+L) (LI-COR 926-32211) diluted 1:2000 in Blocking Buffer) was then added and the plate was stored for 2 h in the dark at room temperature with shaking. The plate was then washed 4 times with 100 μL per well of wash buffer again using a microplate washer. Finally, the p21 signal and the GAPDH signal were quantified using a LI-COR Odyssey CLx Imager machine reading at 800 nm and 700 nm, respectively. Each plate contained DMSO control (low control) and an internal reference WRN inhibitor (high control) respectively. For quantitation, the 800 nm/700 nm ratio was calculated for each well to give fold p21 induction and then percent activation for each compound well was calculated as follows (100×(ratio cpd well-ratio low control)/(ratio high control−ratio low control). EC50 values for each compound was generated after non-linear regression curve fitting using commercially available software.

Chain of human Werner helicase (WRN, amino acids 517-1235 with L1074F point mutation) (Q14191 other isoform, or with tags, fused parts or gaps L1074F (already in the parent)): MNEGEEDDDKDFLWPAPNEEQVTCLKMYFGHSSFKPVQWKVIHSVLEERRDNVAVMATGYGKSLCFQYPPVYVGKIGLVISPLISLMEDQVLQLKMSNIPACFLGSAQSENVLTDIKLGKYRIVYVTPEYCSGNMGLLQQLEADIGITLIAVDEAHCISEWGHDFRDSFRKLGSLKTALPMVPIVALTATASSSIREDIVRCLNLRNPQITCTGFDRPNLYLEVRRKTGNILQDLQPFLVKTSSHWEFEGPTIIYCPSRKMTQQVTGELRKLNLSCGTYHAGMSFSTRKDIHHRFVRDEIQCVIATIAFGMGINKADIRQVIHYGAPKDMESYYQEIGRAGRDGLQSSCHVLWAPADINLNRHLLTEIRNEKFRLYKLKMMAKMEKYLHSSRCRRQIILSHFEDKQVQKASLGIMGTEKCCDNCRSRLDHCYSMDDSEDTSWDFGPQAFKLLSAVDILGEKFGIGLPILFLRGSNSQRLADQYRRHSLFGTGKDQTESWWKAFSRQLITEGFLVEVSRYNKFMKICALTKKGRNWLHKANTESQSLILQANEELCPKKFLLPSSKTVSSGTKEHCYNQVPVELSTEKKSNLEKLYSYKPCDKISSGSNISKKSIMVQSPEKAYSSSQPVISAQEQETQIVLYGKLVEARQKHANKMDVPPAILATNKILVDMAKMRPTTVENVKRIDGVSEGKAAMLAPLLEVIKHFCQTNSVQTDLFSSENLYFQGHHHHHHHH

IC50 [1] | EC50 [2] | SMILES
≤ 0.005 µM | – | CCc1c(N2CCN(C(=O)c3ncnc(C)c3O)[C@H]3CC[C@@H]32)c(=O)c2nn(-c3ccnc(OC)c3)nc2n1CC(=O)Nc1ccc(C(F)(F)F)cc1Cl [Compound I-6, N-(2-chloro-4-(trifluoromethyl)phenyl)-2-(5-ethyl-6-((1S,6S)-5-(5-hydroxy-6-methylpyrimidine-4-carbonyl)-2,5-diazabicyclo[4.2.0]octan-2-yl)-2-(2-methoxypyridin-4-yl)-7-oxo-2,7-dihydro-4H-[1,2,3]triazolo[4,5-b]pyridin-4-yl)acetamide]
– | 0.5 to 2 µM | CCc1c(N2CCN(C(=O)c3ncnc(C)c3O)[C@H]3CC[C@@H]32)c(=O)c2nn(-c3ccnc(OC)c3)cc2n1CC(=O)NC12CC(C3CC3)(C1)C2 [Compound I-188, N-{3-cyclopropylbicyclo[1.1.1]pentan-1-yl}-2-{5-ethyl-6-[(1S,6S)-5-(5-hydroxy-6-methylpyrimidine-4-carbonyl)-2,5-diazabicyclo[4.2.0]octan-2-yl]-2-(2-methoxypyridin-4-yl)-7-oxo-2H,4H,7H-pyrazolo[4,3-b]pyridin-4-yl}acetamide]
– | ≤ 0.5 µM | CCc1c(N2CCN(C(=O)c3c(OC)ccc4ncoc34)[C@H]3CC[C@@H]32)c(=O)c2nn(C3=CCOCC3)nc2n1CC(=O)NC12CC(C3CC3)(C1)C2 [Compound I-192, N-{3-cyclopropylbicyclo[1.1.1]pentan-1-yl}-2-[2-(3,6-dihydro-2H-pyran-4-yl)-5-ethyl-6-[(1S,6S)-5-(6-methoxy-1,3-benzoxazole-7-carbonyl)-2,5-diazabicyclo[4.2.0]octan-2-yl]-7-oxo-2H,4H,7H-[1,2,3]triazolo[4,5-b]pyridin-4-yl]acetamide]
– | ≤ 0.5 µM | CCc1c(N2CCN(C(=O)c3ncnc(C)c3O)[C@H]3CC[C@@H]32)c(=O)c2nn(C3=CCOCC3)nc2n1CC(=O)NC12CC(C(C)(C)C)(C1)C2 [Compound I-196, N-{3-tert-butylbicyclo[1.1.1]pentan-1-yl}-2-[2-(3,6-dihydro-2H-pyran-4-yl)-5-ethyl-6-[(1S,6S)-5-(5-hydroxy-6-methylpyrimidine-4-carbonyl)-2,5-diazabicyclo[4.2.0]octan-2-yl]-7-oxo-2H,4H,7H-[1,2,3]triazolo[4,5-b]pyridin-4-yl]acetamide]

More lines, now with the values behind:

SMILES | IC50 [1] | EC50 [2]
CCc1c(N2CCN(C(=O)c3ncnc(C)c3O)CC2)c(=O)c2nn(C3=CCOCC3)nc2n1CC(=O)Nc1ccc(C(F)(F)F)cc1Cl [Compound I-13, N-(2-chloro-4-(trifluoromethyl)phenyl)-2-(2-(3,6-dihydro-2H-pyran-4-yl)-5-ethyl-6-(4-(5-hydroxy-6-methylpyrimidine-4-carbonyl)piperazin-1-yl)-7-oxo-2,7-dihydro-4H-[1,2,3]triazolo[4,5-b]pyridin-4-yl)acetamide] | 0.005 to 0.05 µM | –
CCc1c(N2CCN(C(=O)c3ncnc(C)c3O)CC2)c(=O)c2nn(-c3cc(C)n(C)n3)nc2n1CC(=O)Nc1ccc(C(F)(F)F)cc1Cl [Compound I-16, N-(2-chloro-4-(trifluoromethyl)phenyl)-2-(2-(1,5-dimethyl-1H-pyrazol-3-yl)-5-ethyl-6-(4-(5-hydroxy-6-methylpyrimidine-4-carbonyl)piperazin-1-yl)-7-oxo-2,7-dihydro-4H-[1,2,3]triazolo[4,5-b]pyridin-4-yl)acetamide] | 0.005 to 0.05 µM | –
CCc1c(N2CCN(C(=O)c3c(O)c(F)cc4ncoc34)[C@H]3CC[C@@H]32)c(=O)c2nn(C3=CCOCC3)nc2n1CC(=O)NC12CC(C3CC3)(C1)C2 [Compound I-194, N-{3-cyclopropylbicyclo[1.1.1]pentan-1-yl}-2-[2-(3,6-dihydro-2H-pyran-4-yl)-5-ethyl-6-[(1S,6S)-5-(5-fluoro-6-hydroxy-1,3-benzoxazole-7-carbonyl)-2,5-diazabicyclo[4.2.0]octan-2-yl]-7-oxo-2H,4H,7H-[1,2,3]triazolo[4,5-b]pyridin-4-yl]acetamide] | – | ≤ 0.5 µM
CCc1c(N2CCN(C(=O)c3ncnc(C)c3O)[C@H]3CC[C@@H]32)c(=O)c2nn(C3=CCOCC3)nc2n1CC(=O)NC1CC2(CCC2)C1 [Compound I-197, 2-[2-(3,6-dihydro-2H-pyran-4-yl)-5-ethyl-6-[(1S,6S)-5-(5-hydroxy-6-methylpyrimidine-4-carbonyl)-2,5-diazabicyclo[4.2.0]octan-2-yl]-7-oxo-2H,4H,7H-[1,2,3]triazolo[4,5-b]pyridin-4-yl]-N-{spiro[3.3]heptan-2-yl}acetamide] | – | ≤ 0.5 µM
CCc1c(N2CCN(C(=O)c3c(COC)cccc3OC)[C@H]3CC[C@@H]32)c(=O)c2nn(C3=CCOCC3)nc2n1CC(=O)NC12CC(C3CC3)(C1)C2 [Compound I-212, N-{3-cyclopropylbicyclo[1.1.1]pentan-1-yl}-2-[2-(3,6-dihydro-2H-pyran-4-yl)-5-ethyl-6-[(1S,6S)-5-[2-methoxy-6-(methoxymethyl)benzoyl]-2,5-diazabicyclo[4.2.0]octan-2-yl]-7-oxo-2H,4H,7H-[1,2,3]triazolo[4,5-b]pyridin-4-yl]acetamide] | – | 0.5 to 2 µM
